In article PMC11898563 (2025):

Columns and labels:
[1] = tested on: MST-DA-1 (DNA, aptamer) ATAGGAGTCACGACGACCAGAAAAATAATTTAAATTTTCTACCCAATGCTTTTCGCATAATATGTGCGTCTACCTCTTGA; experiment: microscale thermophoresis; details: 150 mM NaCl, 2 mM MgCl2; 50 mM Tris, pH 7.4, room temperature
[2] = tested on: MST-OA-1 (DNA, aptamer) GGTCACCAACAACAGGGAGCGCTACGCGAAGGGTCAATGTGACGTCATGCGGATGTGTGG; experiment: microscale thermophoresis; details: 150 mM NaCl, 2 mM MgCl2; 50 mM Tris, pH 7.5, room temperature
[3] = tested on: OA-2 (DNA, aptamer) ATTTGACCATGTCGAGGGAGACGCGCAGTCGCTACCACCT; experiment: AuNP aggregation colorimetry; details: NaCl added (100 mmol L^−1 stock); 1 μmol L^−1 aptamer, room temperature
[4] = tested on: MST-OA-2 (DNA, aptamer) ATTTGACCATGTCGAGGGAGACGCGCAGTCGCTACCACCT; experiment: microscale thermophoresis; details: 150 mM NaCl, 2 mM MgCl2; 50 mM Tris, pH 7.4, room temperature
[5] = tested on: FRET-OA-2 (DNA, aptamer) ATTTGACCATGTCGAGGGAGACGCGCAGTCGCTACCACCT; experiment: fluorescence (FAM/BHQ-1 FRET) titration; details: 150 mM NaCl, 2 mM MgCl2; 50 mM Tris, pH 7.4, 37 °C, 500 nM aptamer; exact value in Figure 1D
[6] = tested on: APT-mid-BHQ1 (DNA, aptamer, internal BHQ1-dT at 29) ATTTGACCATGTCGAGGGAGACGCGCAGTCGCTACCACCT; experiment: strand-displacement fluorescence (duplexed FRET); details: FAM-11nt-C strand displaced; 1 h after OA addition
[7] = tested on: FRET-OA-1 (DNA, aptamer) GGTCACCAACAACAGGGAGCGCTACGCGAAGGGTCAATGTGACGTCATGCGGATGTGTGG; experiment: fluorescence (FAM/BHQ-1 FRET) titration; details: 150 mM NaCl, 2 mM MgCl2; 50 mM Tris, pH 7.5, 37 °C, 500 nM aptamer; exact value in Figure 1C

| Structure (SMILES) | Kd [1] | Kd [2] | binding [3] | Kd [4] | Kd [5] | binding [6] | Kd [7] |
| --- | --- | --- | --- | --- | --- | --- | --- |
| C/C(=C/C=C/[C@@H](C)C(=O)O)[C@H]1CN[C@H](C(=O)O)[C@H]1CC(=O)O | 1.18 ± 2.03 µM |  |  |  |  |  |  |
| C=C1[C@@H](O)[C@@H]2O[C@]3(CC[C@H](/C=C/[C@@H](C)[C@@H]4CC(C)=C[C@@]5(O[C@H](C[C@@](C)(O)C(=O)O)CC[C@H]5O)O4)O3)CC[C@H]2O[C@@H]1[C@@H](O)C[C@H](C)[C@H]1O[C@@]2(CCCCO2)CC[C@H]1C |  | 1.26 ± 0.56 µM | yes | 257.25 ± 90.25 nmol/L | < 800 nmol/L | yes | < 800 nmol/L |
